# Laboratory results: ChEMBL document CHEMBL1201862, “PubChem BioAssay data set” (2004)
#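 48-hour exposure; five concentrations; linearly interpolated endpoints. Abbreviation: GI50, concentration required for 50% inhibition of growth.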 Activity calls are given as the source filed them. Rule as the data show it: active = GI50 up to about 1.1 µM and inactive = higher.
# Columns and labels:
# Experiment in all cases: DTP human tumour cell line panel, 48 h
# [1] = system: 786-0
# [2] = system: A498
# [3] = system: A549
# [4] = system: ACHN
# [5] = system: BT-549
# [6] = system: CAKI-1
# [7] = system: CCRF-CEM
# [8] = system: COLO 205
# [9] = system: DLD-1
# [10] = system: DMS-114
# [11] = system: DMS-273
# [12] = system: DU-145
# [13] = system: EKVX
# [14] = system: HCC 2998
# [15] = system: HCT-116
# [16] = system: HCT-15
# [17] = system: HL-60
# [18] = system: HOP-18
# [19] = system: HOP-62
# [20] = system: HOP-92
# [21] = system: HT-29
# [22] = system: Hs-578T
# [23] = system: IGROV-1
# [24] = system: K562
# [25] = system: KM-20L2
# [26] = system: KM12
# [27] = system: LOX IMVI
# [28] = system: LXFL 529
# [29] = system: M14
# [30] = system: M19-MEL
# [31] = system: MCF7
# [32] = system: MDA-MB-231
# [33] = system: MDA-MB-435
# [34] = system: MDA-N
# [35] = system: MOLT-4
# [36] = system: Malme-3M
# [37] = system: NCI-H226
# [38] = system: NCI-H23
# [39] = system: NCI-H460
# [40] = system: NCI-H522
# [41] = system: NCI/ADR-RES
# [42] = system: OVCAR-3
# [43] = system: OVCAR-4
# [44] = system: OVCAR-5
# [45] = system: OVCAR-8
# [46] = system: PC-3
# [47] = system: RPMI-8226
# [48] = system: RXF 393
# [49] = system: RXF 631
# [50] = system: SF-268
# [51] = system: SF-295
# [52] = system: SF-539
# [53] = system: SK-MEL-28
# [54] = system: SK-MEL-2
# [55] = system: SK-MEL-5
# [56] = system: SK-OV-3
# [57] = system: SN12C
# [58] = system: SNB-19
# [59] = system: SNB-75
# [60] = system: SNB-78
# [61] = system: SR
# [62] = system: SW-620
# [63] = system: T47D
# [64] = system: TK-10
# [65] = system: U-251
# [66] = system: UACC-257
# [67] = system: UACC-62
# [68] = system: UO-31
# [69] = system: XF498
structure (smiles),measurement,setting,value
Nc1ncnc2c1ncn2C1C=C(CO)C(O)C1O (centres undefined),GI50,[1],4.17 µM (inactive)
same,GI50,[2],15.9 µM (inactive)
same,GI50,[3],14.9 µM (inactive)
same,GI50,[4],4.48 µM (inactive)
same,GI50,[5],1.99 µM (inactive)
same,GI50,[6],13.1 µM (inactive)
same,GI50,[7],0.305 µM (active)
same,GI50,[8],3.32 µM (inactive)
same,GI50,[9],5.6 µM (inactive)
same,GI50,[10],1.99 µM (inactive)
same,GI50,[11],2.64 µM (inactive)
same,GI50,[12],5.69 µM (inactive)
same,GI50,[13],25.8 µM (inactive)
same,GI50,[14],4.72 µM (inactive)
same,GI50,[15],0.0509 µM (active)
same,GI50,[16],0.468 µM
same,GI50,[17],0.34 µM (active)
same,GI50,[18],24.3 µM (inactive)
same,GI50,[19],3.26 µM (inactive)
same,GI50,[20],7.55 µM (inactive)
same,GI50,[21],2.06 µM (inactive)
same,GI50,[22],83.6 µM (inactive)
same,GI50,[23],7.74 µM (inactive)
same,GI50,[24],0.0452 µM (active)
same,GI50,[25],14.7 µM (inactive)
same,GI50,[26],0.264 µM (active)
same,GI50,[27],3 µM (inactive)
same,GI50,[28],16.7 µM (inactive)
same,GI50,[29],9.57 µM (inactive)
same,GI50,[30],40.9 µM (inactive)
same,GI50,[31],0.197 µM (active)
same,GI50,[32],2.19 µM (inactive)
same,GI50,[33],3.08 µM (inactive)
same,GI50,[34],3.37 µM (inactive)
same,GI50,[35],0.249 µM (active)
same,GI50,[36],5.33 µM (inactive)
same,GI50,[37],22.4 µM (inactive)
same,GI50,[38],2.83 µM (inactive)
same,GI50,[39],0.637 µM (active)
same,GI50,[40],3.99 µM (inactive)
same,GI50,[41],5.61 µM (inactive)
same,GI50,[42],5.01 µM (inactive)
same,GI50,[43],6.24 µM (inactive)
same,GI50,[44],7.5 µM (inactive)
same,GI50,[45],3.75 µM (inactive)
same,GI50,[46],6.92 µM (inactive)
same,GI50,[47],0.256 µM (active)
same,GI50,[48],9.59 µM (inactive)
same,GI50,[49],12.6 µM (inactive)
same,GI50,[50],10.1 µM (inactive)
same,GI50,[51],24.5 µM (inactive)
same,GI50,[52],4.26 µM (inactive)
same,GI50,[53],1.23 µM (inactive)
same,GI50,[54],29.7 µM (inactive)
same,GI50,[55],20.3 µM (inactive)
same,GI50,[56],8.18 µM (inactive)
same,GI50,[57],7.03 µM (inactive)
same,GI50,[58],16 µM (inactive)
same,GI50,[59],7.55 µM (inactive)
same,GI50,[60],30.9 µM (inactive)
same,GI50,[61],0.0254 µM (active)
same,GI50,[62],2.06 µM (inactive)
same,GI50,[63],1.64 µM (inactive)
same,GI50,[64],6.64 µM (inactive)
same,GI50,[65],10.4 µM (inactive)
same,GI50,[66],1.35 µM (inactive)
same,GI50,[67],3.56 µM (inactive)
same,GI50,[68],0.41 µM (active)
same,GI50,[69],37.2 µM (inactive)
